Measured values from patent US12435092B2, “Substituted imidazo[1,2-A]quinazolines as inhibitors of PARG” (858 Therapeutics, Inc., priority 2022, dated 2025).

These molecules were tested against T1, cellular PARG (Homo sapiens, UniProt Q86W56) (assay: Nuclear PAR accumulation assay (immunofluorescence high-content imaging)). Details: HeLa cells, 1 hour compound treatment then MMS 50 μg/mL for an additional hour.
T1 construct: endogenous in cells; host or cells: HeLa
T1 sequence (Q86W56 whole entry): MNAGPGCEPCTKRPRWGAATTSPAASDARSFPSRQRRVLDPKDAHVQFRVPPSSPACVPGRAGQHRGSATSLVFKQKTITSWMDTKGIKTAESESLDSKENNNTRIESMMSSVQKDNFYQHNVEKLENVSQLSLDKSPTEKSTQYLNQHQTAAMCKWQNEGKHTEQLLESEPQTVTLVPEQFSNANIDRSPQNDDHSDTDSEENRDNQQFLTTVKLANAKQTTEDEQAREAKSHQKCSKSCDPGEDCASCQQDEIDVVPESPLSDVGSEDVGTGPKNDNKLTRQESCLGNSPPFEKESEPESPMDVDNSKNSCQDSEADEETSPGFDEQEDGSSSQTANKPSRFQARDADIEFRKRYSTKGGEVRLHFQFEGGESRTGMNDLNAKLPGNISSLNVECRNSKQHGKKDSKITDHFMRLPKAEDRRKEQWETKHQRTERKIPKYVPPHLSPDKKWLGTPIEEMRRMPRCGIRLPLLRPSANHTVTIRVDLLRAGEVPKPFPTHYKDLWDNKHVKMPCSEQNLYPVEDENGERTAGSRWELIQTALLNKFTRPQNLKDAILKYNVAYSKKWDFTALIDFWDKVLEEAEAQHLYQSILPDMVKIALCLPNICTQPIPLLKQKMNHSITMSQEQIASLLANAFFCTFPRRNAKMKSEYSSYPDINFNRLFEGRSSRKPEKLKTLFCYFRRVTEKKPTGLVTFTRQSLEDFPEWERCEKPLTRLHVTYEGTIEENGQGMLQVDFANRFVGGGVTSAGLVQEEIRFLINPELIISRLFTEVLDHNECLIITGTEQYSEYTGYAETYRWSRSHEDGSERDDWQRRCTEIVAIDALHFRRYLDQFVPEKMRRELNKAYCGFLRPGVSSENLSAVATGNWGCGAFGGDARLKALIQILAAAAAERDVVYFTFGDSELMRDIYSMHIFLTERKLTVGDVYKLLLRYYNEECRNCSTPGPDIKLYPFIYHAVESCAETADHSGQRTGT
Type: cell-based
Method in brief: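 HeLa cells pretreated 1 h at 37 °C with compound, then 1 h with 50 μg/mL MMS (final), methanol-fixed and immunostained for PAR with DAPI nuclear counterstain. Nuclear PAR intensity and percent PAR-positive cells quantified by high-content imaging (≥1,000 cells/well). IC50 by four-parameter logistic fit, normalized to 0.1% DMSO and reference-compound controls.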
`[2H]C([2H])(c1cnn(C)c1)N1C(=O)c2cc(S(=O)(=O)NC3(C)CC3)ccc2N2C1=NC[C@@H]2C` [Example 91, (S)-4-(dideutero(1-methyl-1H-pyrazol-4-yl)methyl)-1-methyl-N-(1-methylcyclopropyl)-5-oxo-1,2,4,5-tetrahydroimidazo[1,2-a]quinazoline-7-sulfonamide] was tested, and the IC50 was 0.1 to 1 µM.
Work on `[2H]C([2H])(c1cnn(C)c1)N1C(=O)c2cc(S(=O)(=O)NC3(C)CC3)cc(OC)c2N2C1=NC[C@H]2C` [Example 92, (R)-4-(dideutero(1-methyl-1H-pyrazol-4-yl)methyl)-9-methoxy-1-methyl-N-(1-methylcyclopropyl)-5-oxo-1,2,4,5-tetrahydroimidazo[1,2-a]quinazoline-7-sulfonamide] yielded an IC50 of 0.1 to 1 µM.
`Cn1cc(CN2C(=O)c3cc(S(=O)(=O)NC4(C)CC4)ccc3N3C2=N[C@H]2COC[C@H]23)cn1` [Example 93, (7aR,10aS)-6-((1-methyl-1H-pyrazol-4-yl)methyl)-N-(1-methylcyclopropyl)-5-oxo-5,6,7a,8,10,10a-hexahydrofuro[3′,4′:4,5]imidazo[1,2-a]quinazoline-3-sulfonamide] was tested, and the IC50 was no more than 0.1 µM.
`Cc1nc(C)c(CN2C(=O)c3cc(S(=O)(=O)NC4CC4)ccc3N3C2=NC[C@H]3C)s1` [Example 94, (R)-N-cyclopropyl-4-((2,4-dimethylthiazol-5-yl)methyl)-1-methyl-5-oxo-1,2,4,5-tetrahydroimidazo[1,2-a]quinazoline-7-sulfonamide] was tested, and the IC50 was no more than 0.1 µM.
`CN(C)C[C@@H]1CN=C2N(Cc3cnn(C)c3)C(=O)c3cc(S(=O)(=O)NC4(C)CC4)ccc3N21` [Example 95, (R)-1-((dimethylamino)methyl)-4-((1-methyl-1H-pyrazol-4-yl)methyl)-N-(1-methylcyclopropyl)-5-oxo-1,2,4,5-tetrahydroimidazo[1,2-a]quinazoline-7-sulfonamide] was tested, and the IC50 was no more than 0.1 µM.
For `CN(C)C[C@H]1CN=C2N(Cc3cnn(C)c3)C(=O)c3cc(S(=O)(=O)NC4(C)CC4)ccc3N21` [Example 96, (S)-1-((dimethylamino)methyl)-4-((1-methyl-1H-pyrazol-4-yl)methyl)-N-(1-methylcyclopropyl)-5-oxo-1,2,4,5-tetrahydroimidazo[1,2-a]quinazoline-7-sulfonamide], the IC50 was 1 to 10 µM.
`Cn1cc(CN2C(=O)c3cc(S(=O)(=O)NC4(C)CC4)ccc3N3C2=NC[C@H]3CN)cn1` [Example 97, (R)-1-(aminomethyl)-4-((1-methyl-1H-pyrazol-4-yl)methyl)-N-(1-methylcyclopropyl)-5-oxo-1,2,4,5-tetrahydroimidazo[1,2-a]quinazoline-7-sulfonamide] showed an IC50 of 0.1 to 1 µM.
For `[2H]C([2H])(c1sc(C)nc1C)N1C(=O)c2cc(S(=O)(=O)NC3(C)CC3)ccc2N2C1=N[C@H]1COC[C@H]12` [Example 98, (7aR,10aS)-6-(dideutero(2,4-dimethylthiazol-5-yl)methyl)-N-(1-methylcyclopropyl)-5-oxo-5,6,7a,8,10,10a-hexahydrofuro[3′,4′:4,5]imidazo[1,2-a]quinazoline-3-sulfonamide], the IC50 was no more than 0.1 µM.
`CNC[C@@H]1CN=C2N(Cc3cnn(C)c3)C(=O)c3cc(S(=O)(=O)NC4(C)CC4)ccc3N21` [Example 99, (R)-4-((1-methyl-1H-pyrazol-4-yl)methyl)-1-((methylamino)methyl)-N-(1-methylcyclopropyl)-5-oxo-1,2,4,5-tetrahydroimidazo[1,2-a]quinazoline-7-sulfonamide] gave an IC50 of 0.1 to 1 µM.
Molecule `Cn1cc(CN2C(=O)c3cc(S(=O)(=O)NC4(C)CC4)ccc3N3CC4(CC4)N=C23)cn1` [Example 100, 4′-((1-methyl-1H-pyrazol-4-yl)methyl)-N-(1-methylcyclopropyl)-5′-oxo-4′,5′-dihydro-1′H-spiro[cyclopropane-1,2′-imidazo[1,2-a]quinazoline]-7′-sulfonamide] has an IC50 of no more than 0.1 µM.
Molecule `Cn1cc(CN2C(=O)c3cc(S(=O)(=O)NC4(C)CC4)ccc3N3CC4(CCC4)N=C23)cn1` [Example 101, 4′-((1-methyl-1H-pyrazol-4-yl)methyl)-N-(1-methylcyclopropyl)-5′-oxo-4′,5′-dihydro-1′H-spiro[cyclobutane-1,2′-imidazo[1,2-a]quinazoline]-7′-sulfonamide] has an IC50 of no more than 0.1 µM.
With `Cn1cc(CN2C(=O)c3cc(S(=O)(=O)NC4(C)CC4)ccc3N3CC4(CC(F)(F)C4)N=C23)cn1` [Example 102, 3,3-difluoro-4′-((1-methyl-1H-pyrazol-4-yl)methyl)-N-(1-methylcyclopropyl)-5′-oxo-4′,5′-dihydro-1′H-spiro[cyclobutane-1,2′-imidazo[1,2-a]quinazoline]-7′-sulfonamide] the IC50 was no more than 0.1 µM.
In the case of `Cn1cc(CN2C(=O)c3cc(S(=O)(=O)NC4(C)CC4)ccc3N3CC4(CCOC4)N=C23)cn1` (stereo not drawn) [Example 103, 4′-((1-methyl-1H-pyrazol-4-yl)methyl)-N-(1-methylcyclopropyl)-5′-oxo-4,4′,5,5′-tetrahydro-1′H,2H-spiro[furan-3,2′-imidazo[1,2-a]quinazoline]-7′-sulfonamide], the IC50 is reported as no more than 0.1 µM.
Molecule `Cn1cc(CN2C(=O)c3cc(S(=O)(=O)NC4(C)CC4)ccc3N3C2=NCC32CCC2)cn1` [Example 104, 4′-((1-methyl-1H-pyrazol-4-yl)methyl)-N-(1-methylcyclopropyl)-5′-oxo-4′,5′-dihydro-2′H-spiro[cyclobutane-1,1′-imidazo[1,2-a]quinazoline]-7′-sulfonamide] has an IC50 of no more than 0.1 µM.
In the case of `Cn1cc(CN2C(=O)c3cc(S(=O)(=O)NC4(C)CC4)ccc3N3C2=NCC32COC2)cn1` [Example 105, 4-((1-methyl-1H-pyrazol-4-yl)methyl)-N-(1-methylcyclopropyl)-5-oxo-4,5-dihydro-2H-spiro[imidazo[1,2-a]quinazoline-1,3′-oxetane]-7-sulfonamide], the IC50 is reported as 0.1 to 1 µM.
`C[C@H]1CN2C(=N1)N(Cc1cnn(C)c1)C(=O)c1cc(S(=O)(=O)NC3(C)CC3)ccc12` [Example 106, (S)-2-methyl-4-((1-methyl-1H-pyrazol-4-yl)methyl)-N-(1-methylcyclopropyl)-5-oxo-1,2,4,5-tetrahydroimidazo[1,2-a]quinazoline-7-sulfonamide] showed an IC50 of no more than 0.1 µM.
With `C[C@@H]1CN2C(=N1)N(Cc1cnn(C)c1)C(=O)c1cc(S(=O)(=O)NC3(C)CC3)ccc12` [Example 107, (R)-2-methyl-4-((1-methyl-1H-pyrazol-4-yl)methyl)-N-(1-methylcyclopropyl)-5-oxo-1,2,4,5-tetrahydroimidazo[1,2-a]quinazoline-7-sulfonamide] the IC50 was 0.1 to 1 µM.
Molecule `C[C@@H]1N=C2N(Cc3cnn(C)c3)C(=O)c3cc(S(=O)(=O)NC4(C)CC4)ccc3N2[C@@H]1C` [Example 108, (1R,2S)-1,2-dimethyl-4-((1-methyl-1H-pyrazol-4-yl)methyl)-N-(1-methylcyclopropyl)-5-oxo-1,2,4,5-tetrahydroimidazo[1,2-a]quinazoline-7-sulfonamide] has an IC50 of no more than 0.1 µM.
`C[C@@H]1[C@@H](C)N=C2N(Cc3cnn(C)c3)C(=O)c3cc(S(=O)(=O)NC4(C)CC4)ccc3N21` [Example 109, (1R,2R)-1,2-dimethyl-4-((1-methyl-1H-pyrazol-4-yl)methyl)-N-(1-methylcyclopropyl)-5-oxo-1,2,4,5-tetrahydroimidazo[1,2-a]quinazoline-7-sulfonamide] was tested, and the IC50 was no more than 0.1 µM.
`C[C@@H]1N2C(=NC1(C)C)N(Cc1cnn(C)c1)C(=O)c1cc(S(=O)(=O)NC3(C)CC3)ccc12` [Example 110, (S)-1,2,2-trimethyl-4-((1-methyl-1H-pyrazol-4-yl)methyl)-N-(1-methylcyclopropyl)-5-oxo-1,2,4,5-tetrahydroimidazo[1,2-a]quinazoline-7-sulfonamide] showed an IC50 of 0.1 to 1 µM.
For `C[C@H]1N2C(=NC1(C)C)N(Cc1cnn(C)c1)C(=O)c1cc(S(=O)(=O)NC3(C)CC3)ccc12` [Example 111, (R)-1,2,2-trimethyl-4-((1-methyl-1H-pyrazol-4-yl)methyl)-N-(1-methylcyclopropyl)-5-oxo-1,2,4,5-tetrahydroimidazo[1,2-a]quinazoline-7-sulfonamide], the IC50 was no more than 0.1 µM.
For `Cc1ncc(CN2C(=O)c3cc(S(=O)(=O)NC4(C)CC4)ccc3N3C2=NC[C@H]3C)[nH]1` [Example 112, (R)-1-methyl-4-((2-methyl-1H-imidazol-5-yl)methyl)-N-(1-methylcyclopropyl)-5-oxo-1,2,4,5-tetrahydroimidazo[1,2-a]quinazoline-7-sulfonamide], the IC50 was 1 to 10 µM.
`[2H]C([2H])(c1sc(C)nc1C)N1C(=O)c2cc(S(=O)(=O)NC3(C)CC3)c(F)cc2N2C1=NC[C@H]2C` [Example 113, (R)-4-(dideutero(2,4-dimethylthiazol-5-yl)methyl)-8-fluoro-1-methyl-N-(1-methylcyclopropyl)-5-oxo-1,2,4,5-tetrahydroimidazo[1,2-a]quinazoline-7-sulfonamide] was tested, and the IC50 was no more than 0.1 µM.
`C[C@@H]1CN=C2N1c1ccc(S(=O)(=O)NC3(C)CC3)cc1C(=O)N2C1(c2cnn(C)c2)CC1` [Example 114, (R)-1-methyl-4-(1-(1-methyl-1H-pyrazol-4-yl)cydopropyl)-N-(1-methylcyclopropyl)-5-oxo-1,2,4,5-tetrahydroimidazo[1,2-a]quinazoline-7-sulfonamide] gave an IC50 of 1 to 10 µM.
`Cc1ncn(C)c1CN1C(=O)c2cc(S(=O)(=O)NC3(C)CC3)ccc2N2C1=NC[C@H]2C` [Example 115, (R)-4-((1,4-dimethyl-1H-imidazol-5-yl)methyl)-1-methyl-N-(1-methylcyclopropyl)-5-oxo-1,2,4,5-tetrahydroimidazo[1,2-a]quinazoline-7-sulfonamide] was tested, and the IC50 was 0.1 to 1 µM.
With `Cn1cc(CN2C(=O)c3cc(S(=O)(=O)NC4(C)CC4)ccc3N3CC4(COC4)N=C23)cn1` [Example 116, 4-((1-methyl-1H-pyrazol-4-yl)methyl)-N-(1-methylcyclopropyl)-5-oxo-4,5-dihydro-1H-spiro[imidazo[1,2-a]quinazoline-2,3′-oxetane]-7-sulfonamide] the IC50 was 0.1 to 1 µM.
`CCC1(C)CN2C(=N1)N(Cc1cnn(C)c1)C(=O)c1cc(S(=O)(=O)NC3(C)CC3)ccc12` (stereo not drawn) [Example 117, 2-ethyl-2-methyl-4-((1-methyl-1H-pyrazol-4-yl)methyl)-N-(1-methylcyclopropyl)-5-oxo-1,2,4,5-tetrahydroimidazo[1,2-a]quinazoline-7-sulfonamide] gave an IC50 of no more than 0.1 µM.
